Where two headings read alike, the source gives them in different places.

In series [1] the test system is HDAC. Kind of series: HDAC activity inhibition assay, HeLa nuclear extracts, Fluor de Lys substrate. It counts as biochemical. The following applies: HeLa nuclear extract, 37° C., 15 min, read-out: 50% HDAC activity inhibition. The protocol: For each test sample the corresponding assay reaction was performed in triplicate. […] For the selected Compounds of the Invention, samples at the following concentrations were prepared and tested: 1 μM, 5 μM, 10 μM, 100 μM and 1 mM.

For series [2], the system named is HDAC. The series can be described thus: In vitro HDAC inhibitory activity using fluor-Lys as the substrate (BIOMOL). It counts as biochemical. As to conditions: for IC50: read-out: 50% HDAC Activity Inhibition. As to the method:
The in vitro HDAC inhibitory activity of these compounds was determined by using fluor-Lys as the substrate (BIOMOL).

The subject of series [3] is SQ-20B cells. The series can be described thus: Radiation clonogenic survival assay (radiation sensitization). The series is classed as cell-based, human. Set-up: α / β: unit not given here. The following applies: drug at IC50 concentration for 24 h, then graded gamma radiation; for α / β: linear quadratic model; for Do in SQ-20B Cells (Gy): single hit multi-target model, Do without sensitizer 2.4 Gy. As to the method:
To test the ability of the Compounds of the Invention to sensitize cells to radiation, we used radiation resistant squamous carcinoma cell line, SQ-20B, for initial radiosensitization experiments. SQ-20B is extremely resistant to ionizing radiation (Do=2.4 Gy in the absence of radiation sensitizers). Briefly, logarithmically growing SQ-20B cells were treated with a drug compound at the IC50 concentration (determined using the clonogenic survival assay illustrated in Example 21) for 24 h and then exposed to graded dose of gamma radiation. Clonogenic survivals were determined and fit to the single hit multi-target and the linear quadratic models.
The shape of radiation survival curves are determined by using either the single-hit multitarget model or the linear-quadratic model. The multitarget model is used to describe the radiation sensitivity of cells defined by the terminal slope of the radiation survival curve, which is referred to as Do. The steeper the slope, the smaller is the value of Do and the more radiation sensitive is the cellular response. Alternatively, a less steep slope results in a larger Do and a more resistant radiation response. The linear-quadratic model is also used to describe the radiation sensitivity defined by two components to cell killing by radiation: one is proportional to dose (αD) and the other is proportional to the square of the dose (βD^2). Thus, the dose at which the linear and quadratic components are equal is the ratio α/β.
Shown in Table 4 are the results of selected compounds of the invention in the radiation clonigenic survival assay.

Series [4] deals with SQ-20B cells.
Procedure: (§3) For each concentration indicated, individual T25 flasks were seeded with the following number of SQ-20B cells: for no drug, 10 μM and 50 μM drug concentrations, separate T25 flasks were each seeded with 100 cells; for 100 μM and 300 μM drug concentrations, separate T25 flasks were each seeded with 200 cells each; and for 500 μM and 1 mM drug concentrations, separate T25 flasks were each seeded with 300 cells each. A Levy Hemacytometer (Hausser Scientific) was used to count the cells in stock suspension. Serial dilutions of stock suspension were performed to obtain the proper concentration for cell seeding. To conduct the cytotoxicity study the SQ20B cells were first seeded under the appropriate treatment specifications and allowed to settle for 24 hr in a tissue culture incubator set at 37° C. and 5% CO2. Cells were treated with their corresponding drugs for 24 hr and then washed with three rinses of PBS (10 mL per rinse) and provided with new media. The cells were then further incubated for colony formation and the colonies were stained using a staining solution consisting of: 5 g Crystal Violet, 700 mL methanol and 300 mL dH2O. The flasks were then destained with three rinses in cold water. After the third rinse the stained colonies were counted and the corresponding IC50 for each drug was calculated.
A short description of series [5]: Cytotoxicity in SQ-20B cells (colony formation). The following applies: human, SQ-20B squamous carcinoma cells.
Procedure: as §3
Series [6] relates to SQ-20B cells. The series can be described thus: Cytotoxicity in SQ-20B cells (colony formation). The following applies: read-out: Cytotoxicity in SQ-20B cells (IC50); 24 hr drug treatment, colony formation.
Procedure: as §3
The subject of series [7] is human breast cancer cells (MCF-7). The series can be described thus: Cytotoxicity following 24 h exposure, MCF-7 (FIG. 2). The series is classed as cell-based. As to conditions: breast carcinoma cells (MCF-7). As to the method:
(§1) FIG. 2 depicts graphically the cytotoxicities of various compounds of the invention following 24 h exposure of human breast cancer cells (MCF-7) and squamous cancer cells (SQ-20B).
(§2) To test the biological effects of the compounds of this and the previous Example, cytotoxicities were determined following 24 h exposure of human breast cancer cells (MCF-7) and squamous cancer cells (SQ-20B) to three compounds (4g, 4c and 10a). FIG. 2.

In series [8] the test system is squamous cancer cells (SQ-20B). Kind of series: Cytotoxicity following 24 h exposure, SQ-20B (FIG. 2). It counts as cell-based, human. As to conditions: squamous carcinoma cells (SQ-20B). As to the method: as §1, §2

For `CN(C)c1ccc(C(=O)NCCCCCCNC(=O)CS)cc1` [Compound 22], in the series on HDAC [1], the IC50 is 800 nM.
Turning to `CN(C)c1ccc(C(=O)NCCCCNC(=O)CS)cc1` [Compound 4b, 4-Dimethylamino-N-[4-(2-mercapto-acetylamino)-butyl]-benzamide], the IC50 in the series with HDAC [2] (fluor-Lys substrate (BIOMOL)) stood at 4700 nM.
As to `CN(C)c1ccc(C(=O)NCc2ccc(CNC(=O)CS)cc2)cc1` [Compound 4k, 4-Dimethylamino-N-{4-[(2-mercapto-acetylamino)-methyl]-benzyl}-benzamide], in the series on HDAC [2] (fluor-Lys substrate (BIOMOL)), the “in vitro HDAC inhibitory activity (in words)” value was “comparable HDAC inhibitory activity” and the IC50 turned out to be 200 nM.
On to “4-[3-(4-Dimethylamino-benzyl)-ureido]-N-hydroxy-butyramide [Compound 2]”, for which, in the series on SQ-20B cells [3], the α was 0.1681, the β stood at 0.03301 and the “Do in SQ-20B Cells (Gy)” value is 1.62 Gy. The IC50 in the series with HDAC [1] was determined as 800 nM. In the series with SQ-20B cells [4], the IC50 was 50000 nM.
With `CN(C)c1ccc(CNC(=O)NCCCCCCCC(=O)NO)cc1` [Compound 6, 8-[3-(4-dimethylamino-benzyl)-ureido]-octanoic Acid Hydroxyamide], in the series with SQ-20B cells [3], the α stood at 0.2846, the β worked out at 0.01761 and the “Do in SQ-20B Cells (Gy)” value is given as 1.94 Gy. Also, in the series on HDAC [1], the IC50 worked out at 700 nM. Besides, the IC50 at 24 h in series [5] amounted to 50000 nM.
In the case of “5-[3-(4-dimethylamino-benzyl)-ureido]-pentanoic Acid Hydroxyamide [Compound 3]”, in the series on SQ-20B cells [3], the α was found to be 0.2420, the β stood at 0.02486 and the “Do in SQ-20B Cells (Gy)” value was determined as 1.72 Gy. Also, the IC50 in the series on HDAC [1] came to 800 nM. For the same compound, the IC50 with SQ-20B cells [6] was 25000 nM.
Take `O=C(CCCCCCC(=O)Nc1ccccc1)NO` [SAHA, suberoylanilide hydroxamic acid, reference compound]: in the series with SQ-20B cells [3], the α is reported as 0.01197, the β is given as 0.03152 and the “Do in SQ-20B Cells (Gy)” value stood at 1.88 Gy.
For the compound `CC(/C=C/C(=O)NO)=C\[C@@H](C)C(=O)c1ccc(N(C)C)cc1` [TSA, 7-(4-(dimethylamino)phenyl)-n-hydroxy-4,6-dimethyl-7-oxo-2,4-heptadienamide, reference compound], in the series with SQ-20B cells [3], the α was 0.1260, the β is reported as 0.03059 and the “Do in SQ-20B Cells (Gy)” value came to 1.65 Gy. The same compound gave an IC50 at 24 h in series [5] of 200 nM.
As to `O=C(CS)NCCCCCNC(=O)c1ccccc1` [Compound 25], in the series on HDAC [1], the IC50 is 1000 nM.
Regarding `CN(C)c1ccc(CNC(=O)NCCCCCCC(=O)NO)cc1` [Compound 5, 7-[3-(4-dimethylamino-benzyl)-ureido]-heptanoic Acid Hydroyxamide], in the series with SQ-20B cells [3], the α was 0.1978, the β is reported as 0.02561 and the “Do in SQ-20B Cells (Gy)” value amounted to 1.78 Gy. Also, the IC50 in the series on HDAC [1] stood at 1000 nM. The same compound yielded an IC50 at 24 h in series [5] of 50000 nM.
On to `CN(C)c1ccc(C(=O)NCCCCCNC(=O)CS)cc1` [Compound 4c, 4-Dimethylamino-N-[5-(2-mercapto-acetylamino)-pentyl]-benzamide], for which the IC50 in the series with HDAC [2] is 200 nM. The “cytotoxicities (in words)” value in series [7] and in series [8] was “dose-dependent cytotoxicities” throughout.
In the case of `CN(C)c1ccc(C(=O)NCCCCCNC(=O)CS)cc1` [Compound 24], in the series with HDAC [1], the IC50 came out at 800 nM.
Take `O=C(CS)NCCCCCNC(=O)c1ccccc1` [Compound 4h, N-[5-(2-Mercapto-acetylamino)-pentyl]-benzamide]: the IC50 in the series on HDAC [2] (fluor-Lys substrate (BIOMOL)) was 1100 nM.
The same measure, in the same setting: in the case of `O=C(CS)NCCCCCNC(=O)c1ccc(-c2ccccc2)cc1` [Compound 4g, Biphenyl-4-carboxylic acid [5-(2-mercapto-acetylamino)-pentyl]-amide] it was 550 nM.
Turning to `O=C(CCCCCNC(=O)NC12CC3CC(CC(C3)C1)C2)NO` [Compound 8, 6-(3-Adamantan-1-yl-ureido)-hexanoic Acid Hydroxyamide], in the series on SQ-20B cells [3], the α is given as 0.2378, the β came out at 0.02282 and the “Do in SQ-20B Cells (Gy)” value was 1.78 Gy. In addition, the IC50 with HDAC [1] was determined as 800 nM. In addition, the IC50 at 24 h in series [5] was found to be 50000 nM.
Regarding `O=C(CS)NCCCCCNC(=O)c1cccc2cccnc12` [Compound 4m, Quinoline-8-carboxylic acid [5-(2-mercapto-acetylamino)-pentyl]-amide], in the series on HDAC [2] (fluor-Lys substrate (BIOMOL)), the IC50 came to 400 nM.
Turning to `O=C(CS)NCCCCNC(=O)c1ccc(-c2ccccc2)cc1` [Compound 4f, Biphenyl-4-carboxylic acid [4-(2-mercapto-acetylamino)-butyl]-amide], the IC50 with HDAC [2] (fluor-Lys substrate (BIOMOL)) was determined as 13000 nM.
As to `O=C(CS)NCCCCCNC(=O)Nc1ccccc1` [Compound 9, 2-Mercapto-N-[5-(3-phenyl-ureido)-pentyl]-acetamide], in the series with HDAC [1], the IC50 turned out to be 900 nM.
On to `CN(C)c1ccc(C(=O)NCCCNC(=O)CS)cc1` [Compound 4a, 4-Dimethylamino-N-[3-(2-mercapto-acetylamino)-propyl]-benzamide], for which the IC50 in the series with HDAC [2] (fluor-Lys substrate (BIOMOL)) came out at 800 nM.
Regarding `O=C(CS)NCCCCCNC(=O)c1ccc(-c2ccccc2)cc1` [Compound 23], the IC50 in the series with HDAC [1] was found to be 750 nM.
For `O=C(CS)NCCCCCCNC(=O)c1ccccc1` [Compound 21], in the series on HDAC [1], the IC50 was 1600 nM.
Take `O=C(CS)NCCCCCCNC(=O)Nc1ccccc1` [Compound 10, 2-Mercapto-N-[6-(3-phenyl-ureido)-hexyl]-acetamide]: in the series on SQ-20B cells [3], the α was found to be 0.1135, the β amounted to 0.01558 and the “Do in SQ-20B Cells (Gy)” value was found to be 2.54 Gy. Further, the IC50 with HDAC [1] is 900 nM. For the same compound, in series [5], the IC50 at 24 h came out at 50000 nM.
Regarding `O=C(CS)NCCCCCNC(=O)c1cnc2ccccc2c1` [Compound 4l, Quinoline-3-carboxylic acid [5-(2-mercapto-acetylamino)-pentyl]-amide], the IC50 with HDAC [2] (fluor-Lys substrate (BIOMOL)) was determined as 250 nM.
Regarding `CN(C)c1ccc(NC(=O)NCCCCCCC(=O)NO)cc1` [Compound 7, 7-[3-(4-dimethylamino-phenyl)-ureido]-heptanoic Acid Hydroxyamide], in the series on SQ-20B cells [3], the α stood at 0.1391, the β was found to be 0.03335 and the “Do in SQ-20B Cells (Gy)” value was found to be 1.57 Gy. For the same compound, in the series with HDAC [1], the IC50 came out at 700 nM. In series [5], this compound had an IC50 at 24 h of 10000 nM.
For `O=C(CS)NCCCCCCNC(=O)CS` [Compound 4j, 2-Mercapto-N-[6-(2-mercapto-acetylamino)-hexyl]-acetamide], the IC50 in the series on HDAC [2] (fluor-Lys substrate (BIOMOL)) turned out to be 10000 nM.
`O=C(CS)NCCCNC(=O)c1ccc(-c2ccccc2)cc1` [Compound 4e, Biphenyl-4-carboxylic acid [3-(2-mercapto-acetylamino)-propyl]-amide]: the IC50 with HDAC [2] (fluor-Lys substrate (BIOMOL)) worked out at 800 nM.
Turning to `O=C(CS)NCCCCCNC(=O)NCc1ccccc1` [Compound 11, N-[5-(3-benzyl-ureido)-pentyl]-2-mercapto-acetamide], the IC50 with HDAC [1] was 1600 nM.
Take `O=C(CS)NCCCCCCNC(=O)c1ccccc1` [Compound 4i, N-[6-(2-Mercapto-acetylamino)-hexyl]-benzamide]: in the series on HDAC [2] (fluor-Lys substrate (BIOMOL)), the IC50 was determined as 900 nM.
`CN(C)c1ccc(C(=O)NCCCCCCNC(=O)CS)cc1` [Compound 4d, 4-Dimethylamino-N-[6-(2-mercapto-acetylamino)-hexyl]-benzamide]: in the series on HDAC [2] (fluor-Lys substrate (BIOMOL)), the IC50 was 450 nM.

Values taken from patent US8067600B2, “Histone deacetylase inhibitors and methods of use thereof” (Georgetown University, priority 2003, dated 2011).
